# According to patent US10590086B2, “Pharmaceutical compound” (IOmet Pharma Ltd., priority 2014, dated 2020):
# What was measured:
# IDO [1] = target: T1, IDO (Homo sapiens, UniProt P14902); assay: SKOV3 kynurenine cell-based assay (IDO induced by IFN-γ); parameters: IDO expression was induced in the SKOV3 cells by the addition of 500 ng/ml IFN-γ; endogenous in cells; host or cells: SKOV3 (human ovarian adenocarcinoma), induced with IFN-γ; conditions: SKOV3 human ovarian adenocarcinoma cells, 500 ng/ml IFN-γ, 48 hours, 500 μM L-tryptophan; read-out: SKOV3 Kynurenine cell based assay pIC50 (converted)
# Outline: (§1)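 First, A172 or SKOV3 cells were seeded in phenol red-free RPMI, 10% FCS, 2 mM L-glutamine, 500 μM L-tryptophan; SKOV3 received 500 ng/ml IFN-γ for IDO induction. Next came compound exposure, 48 hours, 37° C. Finally, cells were spun out, supernatant treated with Erhlich's reagent, absorbance read at 490 nm.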
# IDO [2] = target: T1, IDO; assay: hIDO biochemical coupled assay; conditions: 45 μM L-tryptophan, 17 minutes, room temperature; read-out: hIDO biochemical assay pIC50 (converted)
# TDO [3] = target: T2, TDO (Homo sapiens, UniProt P48775); assay: hTDO biochemical coupled assay; conditions: 330 μM L-tryptophan, 17 minutes, room temperature; read-out: hTDO biochemical assay pIC50 (converted)
# TDO [4] = target: T2, TDO; assay: A172 kynurenine cell-based assay; parameters: This assay utilised cancer cells which expressed either TDO or IDO; endogenous in cells; host or cells: A172 (human glioblastoma); conditions: A172 human glioblastoma cells, 48 hours, 500 μM L-tryptophan; read-out: A172 Kynurenine cell based assay pIC50 (converted)
# Outline: as §1
# T2 sequence (P48775 whole entry): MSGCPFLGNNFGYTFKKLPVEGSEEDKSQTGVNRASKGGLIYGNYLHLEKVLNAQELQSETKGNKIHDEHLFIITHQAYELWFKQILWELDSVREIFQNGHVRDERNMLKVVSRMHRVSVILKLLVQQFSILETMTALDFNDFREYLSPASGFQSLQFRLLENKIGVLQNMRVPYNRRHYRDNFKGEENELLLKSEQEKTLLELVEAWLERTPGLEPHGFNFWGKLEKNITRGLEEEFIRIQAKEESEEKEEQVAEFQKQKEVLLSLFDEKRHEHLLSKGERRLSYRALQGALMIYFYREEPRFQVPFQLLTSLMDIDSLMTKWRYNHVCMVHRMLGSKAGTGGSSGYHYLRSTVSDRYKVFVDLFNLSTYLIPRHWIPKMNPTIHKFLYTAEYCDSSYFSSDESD
# T1 sequence (P14902 whole entry): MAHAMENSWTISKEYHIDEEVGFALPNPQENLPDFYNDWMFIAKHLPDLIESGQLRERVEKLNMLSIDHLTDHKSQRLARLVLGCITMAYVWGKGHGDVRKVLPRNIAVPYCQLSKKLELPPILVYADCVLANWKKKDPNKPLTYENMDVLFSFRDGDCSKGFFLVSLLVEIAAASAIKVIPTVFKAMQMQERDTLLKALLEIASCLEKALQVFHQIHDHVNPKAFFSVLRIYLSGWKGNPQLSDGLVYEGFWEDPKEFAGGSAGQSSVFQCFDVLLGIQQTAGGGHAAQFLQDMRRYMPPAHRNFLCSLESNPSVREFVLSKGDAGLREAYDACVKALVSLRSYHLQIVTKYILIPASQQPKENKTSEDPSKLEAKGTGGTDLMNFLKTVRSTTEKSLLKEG
Structure (SMILES),IC50 (IDO [1]),IC50 (IDO [2]),IC50 (TDO [3]),IC50 (TDO [4])
OC1(c2ccccc2)CCN(c2cc(Cl)cc3[nH]ncc23)CC1 [Compound 207],3.24 to 31.6 µM,3.24 to 31.6 µM,< 3.16 µM,< 3.16 µM
CC(=O)N1CCN(c2cccc3cnn(C)c23)CC1 [Compound 38],,32.4 to 100 µM,32.4 to 100 µM,
Cc1noc(C)c1S(=O)(=O)Nc1cccc2[nH]ncc12 [Compound 3],,> 100 µM,3.24 to 31.6 µM,
O=C(Nc1cccc2[nH]ncc12)c1ccccc1 [Compound 9],,> 100 µM,32.4 to 100 µM,
CS(=O)(=O)N1CCN(c2cc(F)cc3[nH]ncc23)CC1 [Compound 44],,> 100 µM,< 3.16 µM,
CC(C)CS(=O)(=O)Nc1cccc2[nH]ncc12 [Compound 8],,> 100 µM,3.24 to 31.6 µM,
CS(=O)(=O)NCCOc1cccc2[nH]ncc12 [Compound 35],,> 100 µM,3.24 to 31.6 µM,
O=C(Nc1cccc2[nH]ncc12)C1CCOCC1 [Compound 5],,> 100 µM,32.4 to 100 µM,
Cn1ncc2cccc(N3CCN(S(C)(=O)=O)CC3)c21 [Compound 37],,32.4 to 100 µM,32.4 to 100 µM,
CNc1ccc(-c2cc(Cl)cc3[nH]ncc23)cn1 [Compound 241],3.24 to 31.6 µM,> 100 µM,,3.24 to 31.6 µM
CN(C)S(=O)(=O)Nc1cccc2[nH]ncc12 [Compound 7],,> 100 µM,32.4 to 100 µM,
COC(=O)c1ccc(-c2cc(Cl)cc3[nH]ncc23)cc1 [Compound 240],3.24 to 31.6 µM,> 100 µM,,< 3.16 µM
CC(=O)N1CC2CCC1CN2c1cc(Cl)cc2[nH]ncc12 (centres unmarked) [Compound 233],3.24 to 31.6 µM,32.4 to 100 µM,,< 3.16 µM
CS(=O)(=O)NC1CCCN(c2cc(Cl)cc3[nH]ncc23)C1 (centres unmarked) [Compound 229],32.4 to 100 µM,> 100 µM,,3.24 to 31.6 µM
CC(C)CNC(=O)c1cc(Cl)cc2[nH]ncc12 [Compound 238],32.4 to 100 µM,> 100 µM,,3.24 to 31.6 µM
O=C1NC2(CCO1)CCN(c1cc(Cl)cc3[nH]ncc13)CC2 [Compound 224],32.4 to 100 µM,32.4 to 100 µM,,< 3.16 µM
CN(c1ccc(-c2cc(Cl)cc3[nH]ncc23)cc1)S(C)(=O)=O [Compound 239],3.24 to 31.6 µM,32.4 to 100 µM,,< 3.16 µM
CS(=O)(=O)Nc1ccc(-c2cc(Cl)cc3[nH]ncc23)cc1 [Compound 220],3.24 to 31.6 µM,> 100 µM,,< 3.16 µM
CS(=O)(=O)N1CCN(c2cc(OC(F)(F)F)cc3[nH]ncc23)CC1 [Compound 221],32.4 to 100 µM,> 100 µM,,3.24 to 31.6 µM
Clc1cc(N2CCC(c3ncc[nH]3)CC2)c2cn[nH]c2c1 [Compound 235],3.24 to 31.6 µM,> 100 µM,,< 3.16 µM
CC(=O)N1CCC(c2cc(C(C)C)cc3[nH]ncc23)CC1 [Compound 222],32.4 to 100 µM,3.24 to 31.6 µM,,3.24 to 31.6 µM
O=S(=O)(Nc1cccc2[nH]ncc12)c1ccccc1 [Compound 2],,> 100 µM,32.4 to 100 µM,
CS(=O)(=O)N1CC2CCC1CN2c1cc(Cl)cc2[nH]ncc12 (centres unmarked) [Compound 230],32.4 to 100 µM,> 100 µM,,< 3.16 µM
CN(C)C(=O)C1CCN(c2cc(Cl)cc3[nH]ncc23)CC1 [Compound 225],3.24 to 31.6 µM,3.24 to 31.6 µM,,3.24 to 31.6 µM

# Now from value to molecule:
IC50 (IDO [1]),IC50 (IDO [2]),IC50 (TDO [3]),IC50 (TDO [4]),Structure (SMILES)
3.24 to 31.6 µM,> 100 µM,< 3.16 µM,< 3.16 µM,CC(=O)Nc1ccc(-c2cc(Cl)cc3[nH]ncc23)cc1 [Compound 246]
> 100 µM,32.4 to 100 µM,< 3.16 µM,< 3.16 µM,COC(=O)CN1CCN(c2cc(Cl)cc3[nH]ncc23)CC1(C)C [Compound 414]
< 3.16 µM,< 3.16 µM,< 3.16 µM,< 3.16 µM,CC1(C)CN(c2cc(C(F)F)cc3[nH]ncc23)CCN1S(C)(=O)=O [Compound 370]
32.4 to 100 µM,> 100 µM,> 100 µM,32.4 to 100 µM,"CS(=O)(=O)N1CCN(c2cc(Cl)cc3[nH]ncc23)C2CCCCC21 (single isomer, unassigned) [Compound 385]"
> 100 µM,32.4 to 100 µM,< 3.16 µM,3.24 to 31.6 µM,O=C(O)C1CCN(c2cc(Cl)cc3[nH]ncc23)CC1 [Compound 301]
> 100 µM,> 100 µM,< 3.16 µM,< 3.16 µM,CC(=O)NCCN1CCN(c2cc(Cl)cc3[nH]ncc23)CC1 [Compound 379]
< 3.16 µM,< 3.16 µM,< 3.16 µM,< 3.16 µM,CN(C)CCN1C(=O)NC2(CCN(c3cc(Cl)cc4[nH]ncc34)CC2)C1=O [Compound 392]
> 100 µM,> 100 µM,< 3.16 µM,< 3.16 µM,COCCc1cc(Cl)cc2[nH]ncc12 [Compound 288]
3.24 to 31.6 µM,3.24 to 31.6 µM,< 3.16 µM,< 3.16 µM,NS(=O)(=O)N1CCC2(CCN(c3cc(Cl)cc4[nH]ncc34)CC2)C1 [Compound 361]
> 100 µM,3.24 to 31.6 µM,< 3.16 µM,< 3.16 µM,Cn1ncc2c1CN(c1cc(Cl)cc3[nH]ncc13)CC2 [Compound 432]
< 3.16 µM,< 3.16 µM,< 3.16 µM,< 3.16 µM,CC(=O)N1CCC(c2cc(Cl)cc3[nH]ncc23)CC1(C)C (centres unmarked) [Compound 400]
32.4 to 100 µM,> 100 µM,< 3.16 µM,< 3.16 µM,Clc1cc(N2CCc3ccccc3C2)c2cn[nH]c2c1 [Compound 304]
> 100 µM,32.4 to 100 µM,< 3.16 µM,3.24 to 31.6 µM,CC(=O)N1CCOC2(CCN(c3cc(Cl)cc4[nH]ncc34)CC2)C1 [Compound 409]
32.4 to 100 µM,32.4 to 100 µM,< 3.16 µM,< 3.16 µM,CS(=O)(=O)N1CCC2(CCN(c3cc(Cl)cc4[nH]ncc34)CC2)C1 [Compound 349]
,< 3.16 µM,< 3.16 µM,< 3.16 µM,O=C1NC2(CCN(c3cc(Cl)cc4[nH]ncc34)CC2)C(=O)N1c1ccccc1 [Compound 456]
32.4 to 100 µM,> 100 µM,,3.24 to 31.6 µM,O=C(c1cc(Cl)cc2[nH]ncc12)N1CCCCC1 [Compound 274]
3.24 to 31.6 µM,,3.24 to 31.6 µM,3.24 to 31.6 µM,"CS(=O)(=O)N1CCN(c2cc(Cl)cc3[nH]ncc23)C2CCCCC21 (single isomer, unassigned) [Compound 386]"
32.4 to 100 µM,> 100 µM,,3.24 to 31.6 µM,CN(C1CCCN(c2cc(Cl)cc3[nH]ncc23)C1)S(C)(=O)=O (centres unmarked) [Compound 242]
3.24 to 31.6 µM,> 100 µM,,> 100 µM,CC(C)COc1cccc2[nH]ncc12 [Compound 262]
3.24 to 31.6 µM,3.24 to 31.6 µM,,< 3.16 µM,CN1C(=O)CCC12CCN(c1cc(Cl)cc3[nH]ncc13)CC2 [Compound 245]
3.24 to 31.6 µM,3.24 to 31.6 µM,,< 3.16 µM,CC(=O)NCC1CCN(c2cc(Cl)cc3[nH]ncc23)CC1 [Compound 270]
3.24 to 31.6 µM,> 100 µM,,< 3.16 µM,CS(=O)(=O)NCc1ccc(-c2cc(Cl)cc3[nH]ncc23)cc1 [Compound 292]
